Data published in patent US6780871B2, “Methods and compositions for treating addiction disorders” (Albany Medical College, priority 2001, dated 2004).

What was measured:
NR1/2A receptors = biological target: T1, NR1/2A receptors (Rattus norvegicus, UniProt P35439+Q00959); assay: whole-cell patch-clamp of transfected HEK293 cells, NR1/2A, 100 μM glutamate plus 10 μM glycine; type: cell-based
T1 construct: expressed in transfected cells; host or cells: HEK293 (ATCC CRL1573), transient transfection
Experimental: (§1) Human embryonic kidney 293 (HEK293) fibroblasts (ATCC CRL1573) were cultured in minimal essential medium supplemented with 10% fetal bovine serum and 2 mM glutamine (Life Technologies, Rockville, Md.). Cells were plated on poly-D-lysine-coated 35 mm nunc dishes, transfected by the LipofectaminePLUS method (Life Technologies), and examined functionally between 18-48 h post transfection. The following receptor subunit cDNAs were used: nAChR-α3 (nicotinic acetylcholine receptor-α3; accession no. L31621), nAChR-α4 (accession no. L31620), nAChR-β2 (accession no. L31622), nAChR-β4 (accession no. U42976), 5-HT3R-A (5-HT3A receptor; accession no. M74425), NR1 (N-methyl-D-aspartate receptor 1; accession no. X63255), NR2A (accession no. X91561), and NR2B (accession no. M91562). The nAchR and NR clones were rat; the 5-HT3R-A clone was mouse. Co-transfection of enhanced green fluorescent protein (“EGFP”) (10% of total cDNA) provided a marker to identify transfected cells. Transfected cells were selected for EGFP expression and examined by voltage-clamp recording in the whole-cell configuration using an Axopatch 200B patch-clamp amplifier (Axon Instruments, Foster City, Calif.). Thin-walled borosilicate glass microelectrodes (TW150F, World Precision Instruments, Sarasota, Fla.) had resistances of 3-5 MΩ when filled with an internal solution containing (in mM): 135 CsCl, 10 CsF, 10 HEPES (N-[2-hydroxyethyl]piperazine-N′-[2-ethanesulfonic acid]), 5 EGTA (ethylene glycol-bis[β-aminoethyl ether]-N,N,N′,N′-tetraacetic acid), 1 MgCl2, 0.5 CaCl2, pH 7.2. Whole-cell capacitance and series resistance were recorded and adequately compensated using the available circuitry of the amplifier. Current responses were filtered at 1 kHz with an 8-pole Bessel filter (Cygnus Technologies, Delaware Water Gap, Pa.), digitized at 3 kHz, and stored on a Macintosh PowerPC-G3 computer using an ITC-16 interface (Instrutech, Great Neck, N.Y.) under control of the data acquisition and analysis program Synapse (Synergy Research, Gaithersburg, Md.). Cells were continuously superfused with extracellular solution containing (in mM): 150 NaCl, 3 KCl, 5 HEPES, 1 MgCl2, 1.8 CaCl2, 10 glucose, and 0.1 mg/ml phenol red, pH 7.3 (MgCl2 was omitted from all solutions used for the study of NMDA receptors). […] Control, agonist, and drug solutions were applied to individual cells by rapid perfusion. Solutions were driven by a syringe pump through a flowpipe having 4 inputs that converge at a single common output of approximately 100 μm diameter. Rapid switching between inputs was achieved using a set of upstream solenoid valves (Lee Co., Westbrook, Conn.) under computer control; the solution exchange rate was ˜5 ms as measured from liquid junction currents.
(§2) To study these, transfected HEK293 cells expressing NR1/2A or NR1/2B receptors were voltage-clamped to −70 mV and stimulated with 100 μM glutamate plus 10 μM glycine at 30 s intervals. […] In FIGS. 3A and 3B, open bars depict the timing of agonist application, filled bars depict the timing of co-application of 20 μM IBO or 20 μM 18MC, and inhibition was measured relative to control at the end of the drug application (indicated by arrows).

5-HT3A receptors = biological target: T2, 5-HT3A receptors (Mus musculus, UniProt P23979); assay: whole-cell patch-clamp of transfected HEK293 cells, 5-HT3A, 100 μM serotonin; type: cell-based
T2 construct: expressed in transfected cells; host or cells: HEK293 (ATCC CRL1573), transient transfection
T2 sequence (P23979 24-489): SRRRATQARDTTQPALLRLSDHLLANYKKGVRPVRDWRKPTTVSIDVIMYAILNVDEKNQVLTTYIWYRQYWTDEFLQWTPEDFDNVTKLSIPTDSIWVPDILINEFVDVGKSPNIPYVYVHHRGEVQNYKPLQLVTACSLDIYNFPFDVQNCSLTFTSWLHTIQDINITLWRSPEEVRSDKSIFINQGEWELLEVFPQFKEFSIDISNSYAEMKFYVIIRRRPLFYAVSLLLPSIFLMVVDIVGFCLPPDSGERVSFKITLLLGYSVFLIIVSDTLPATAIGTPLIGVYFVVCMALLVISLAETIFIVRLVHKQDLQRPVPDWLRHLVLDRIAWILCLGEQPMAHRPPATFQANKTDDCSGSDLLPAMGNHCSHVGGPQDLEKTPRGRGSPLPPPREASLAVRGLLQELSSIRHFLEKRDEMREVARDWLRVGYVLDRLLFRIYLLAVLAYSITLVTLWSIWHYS
Experimental: as §1
as §2, with “Transfected” for “To study these, transfected”, “5-HT3A” for “NR1/2A or NR1/2B”, “serotonin” for “glutamate plus 10 μM glycine”, “This is shown in FIG. 4, where” for “In FIGS. 3A and 3B,”

[1] = tested on: methamphetamine self-administration; assay: intravenous methamphetamine self-administration; type: in vivo, rat
α3β4 nACh receptors = biological target: T3, α3β4 nACh receptors (Rattus norvegicus, UniProt P04757+P12392); assay: whole-cell patch-clamp of transfected HEK293 cells, ganglionic α3β4 nACh receptors, 1 mM ACh; type: cell-based
T3 construct: expressed in transfected cells; host or cells: HEK293 (ATCC CRL1573), transient transfection
Experimental: Human embryonic kidney 293 (HEK293) fibroblasts (ATCC CRL1573) were cultured in minimal essential medium supplemented with 10% fetal bovine serum and 2 mM glutamine (Life Technologies, Rockville, Md.). Cells were plated on poly-D-lysine-coated 35 mm nunc dishes, transfected by the LipofectaminePLUS method (Life Technologies), and examined functionally between 18-48 h post transfection. The following receptor subunit cDNAs were used: nAChR-α3 (nicotinic acetylcholine receptor-α3; accession no. L31621), nAChR-α4 (accession no. L31620), nAChR-β2 (accession no. L31622), nAChR-β4 (accession no. U42976), 5-HT3R-A (5-HT3A receptor; accession no. M74425), NR1 (N-methyl-D-aspartate receptor 1; accession no. X63255), NR2A (accession no. X91561), and NR2B (accession no. M91562). The nAchR and NR clones were rat; the 5-HT3R-A clone was mouse. Co-transfection of enhanced green fluorescent protein (“EGFP”) (10% of total cDNA) provided a marker to identify transfected cells. Transfected cells were selected for EGFP expression and examined by voltage-clamp recording in the whole-cell configuration using an Axopatch 200B patch-clamp amplifier (Axon Instruments, Foster City, Calif.). Thin-walled borosilicate glass microelectrodes (TW150F, World Precision Instruments, Sarasota, Fla.) had resistances of 3-5 MΩ when filled with an internal solution containing (in mM): 135 CsCl, 10 CsF, 10 HEPES (N-[2-hydroxyethyl]piperazine-N′-[2-ethanesulfonic acid]), 5 EGTA (ethylene glycol-bis[β-aminoethyl ether]-N,N,N′,N′-tetraacetic acid), 1 MgCl2, 0.5 CaCl2, pH 7.2. Whole-cell capacitance and series resistance were recorded and adequately compensated using the available circuitry of the amplifier. Current responses were filtered at 1 kHz with an 8-pole Bessel filter (Cygnus Technologies, Delaware Water Gap, Pa.), digitized at 3 kHz, and stored on a Macintosh PowerPC-G3 computer using an ITC-16 interface (Instrutech, Great Neck, N.Y.) under control of the data acquisition and analysis program Synapse (Synergy Research, Gaithersburg, Md.). […] Rapid switching between inputs was achieved using a set of upstream solenoid valves (Lee Co., Westbrook, Conn.) under computer control; the solution exchange rate was ˜5 ms as measured from liquid junction currents.
Transfected HEK293 cells expressing various receptor subunit cDNAs were examined by whole-cell patch-clamp recording with fast perfusion of agonist and drug solutions. […] In FIG. 1A, open bars depict the timing of ACh application; filled bars depict the timing of co-application of 20 μM IBO or 20 μM 18MC; and inhibition was measured relative to control at the end of the drug application (indicated by arrows). […]

NR1/2B receptors = biological target: T4, NR1/2B receptors (Rattus norvegicus, UniProt P35439+Q00960); assay: whole-cell patch-clamp of transfected HEK293 cells, NR1/2B, 100 μM glutamate plus 10 μM glycine; type: cell-based
T4 construct: expressed in transfected cells; host or cells: HEK293 (ATCC CRL1573), transient transfection
Experimental: as §1, §2

nACh receptors = biological target: T5, nACh receptors (Rattus norvegicus, UniProt P09483+P12390); assay: whole-cell patch-clamp of transfected HEK293 cells, neuronal nACh receptors, 300 μM ACh; type: cell-based; conditions: 300 μM ACh, estimated from 5 and 20 μM data; read-out: IC50 suggested by the inhibition data
T5 construct: expressed in transfected cells; host or cells: HEK293 (ATCC CRL1573), transient transfection
Experimental: as §1
Transfected HEK293 cells expressing various receptor subunit cDNAs were examined by whole-cell patch-clamp recording with fast perfusion of agonist and drug solutions. […] Transfected HEK293 cells expressing α3β4 nACh receptors were voltage-clamped to −70 mV and stimulated with 1 mM ACh at 30 s intervals. […] In FIG. 1A, open bars depict the timing of ACh application; filled bars depict the timing of co-application of 20 μM IBO or 20 μM 18MC; and inhibition was measured relative to control at the end of the drug application (indicated by arrows). […] The data presented in FIG. 1B are mean±SEM for 3-14 cells per point, and curve fits are given for the logistic equation: I=Imax/(1+([drug]/IC50)). […] In this case, transfected HEK293 cells expressing α3β4 nACh receptors were voltage-clamped to −70 mV and stimulated with 300 μM ACh at 30 s intervals.

T4 sequence (Q00960 27-1482, other chains not shown): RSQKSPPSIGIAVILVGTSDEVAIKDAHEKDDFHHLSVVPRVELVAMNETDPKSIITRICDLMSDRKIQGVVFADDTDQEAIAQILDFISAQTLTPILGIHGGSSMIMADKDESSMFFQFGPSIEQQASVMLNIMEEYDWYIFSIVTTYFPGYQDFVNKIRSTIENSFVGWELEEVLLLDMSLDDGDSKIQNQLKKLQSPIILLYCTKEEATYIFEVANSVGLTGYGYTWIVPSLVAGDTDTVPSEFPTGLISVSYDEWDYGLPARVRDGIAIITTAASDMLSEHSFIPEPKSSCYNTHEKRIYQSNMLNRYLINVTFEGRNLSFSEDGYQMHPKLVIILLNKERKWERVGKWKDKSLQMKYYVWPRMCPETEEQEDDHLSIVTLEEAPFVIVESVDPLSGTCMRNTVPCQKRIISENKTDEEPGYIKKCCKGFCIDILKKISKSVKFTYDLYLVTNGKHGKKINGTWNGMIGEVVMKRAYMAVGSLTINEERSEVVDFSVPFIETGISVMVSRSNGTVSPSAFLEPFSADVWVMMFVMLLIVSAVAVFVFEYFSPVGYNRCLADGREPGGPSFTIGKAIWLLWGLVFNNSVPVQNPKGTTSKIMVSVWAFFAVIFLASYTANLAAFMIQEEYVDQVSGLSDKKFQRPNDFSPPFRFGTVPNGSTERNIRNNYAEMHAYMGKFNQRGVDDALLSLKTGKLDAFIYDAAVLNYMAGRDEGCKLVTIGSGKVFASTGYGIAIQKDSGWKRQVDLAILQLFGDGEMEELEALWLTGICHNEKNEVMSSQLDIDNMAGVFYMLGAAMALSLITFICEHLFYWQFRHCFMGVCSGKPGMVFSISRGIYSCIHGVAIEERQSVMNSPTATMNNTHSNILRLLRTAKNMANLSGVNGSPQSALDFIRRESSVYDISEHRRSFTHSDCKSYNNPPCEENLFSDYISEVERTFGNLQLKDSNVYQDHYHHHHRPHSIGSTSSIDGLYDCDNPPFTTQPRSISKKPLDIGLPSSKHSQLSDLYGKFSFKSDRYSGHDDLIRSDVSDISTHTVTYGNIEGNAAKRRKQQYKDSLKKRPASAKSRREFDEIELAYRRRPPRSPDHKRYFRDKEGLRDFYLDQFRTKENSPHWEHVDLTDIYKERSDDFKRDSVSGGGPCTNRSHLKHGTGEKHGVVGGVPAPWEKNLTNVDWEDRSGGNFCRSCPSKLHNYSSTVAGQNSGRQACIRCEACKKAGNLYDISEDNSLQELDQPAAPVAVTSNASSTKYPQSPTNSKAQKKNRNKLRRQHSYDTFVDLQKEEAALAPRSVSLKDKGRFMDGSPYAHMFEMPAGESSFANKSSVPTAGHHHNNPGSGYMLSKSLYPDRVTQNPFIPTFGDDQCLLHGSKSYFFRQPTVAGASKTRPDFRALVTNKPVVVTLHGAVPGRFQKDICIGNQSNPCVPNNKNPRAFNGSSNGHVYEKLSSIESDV
T3 sequence (P04757 26-499): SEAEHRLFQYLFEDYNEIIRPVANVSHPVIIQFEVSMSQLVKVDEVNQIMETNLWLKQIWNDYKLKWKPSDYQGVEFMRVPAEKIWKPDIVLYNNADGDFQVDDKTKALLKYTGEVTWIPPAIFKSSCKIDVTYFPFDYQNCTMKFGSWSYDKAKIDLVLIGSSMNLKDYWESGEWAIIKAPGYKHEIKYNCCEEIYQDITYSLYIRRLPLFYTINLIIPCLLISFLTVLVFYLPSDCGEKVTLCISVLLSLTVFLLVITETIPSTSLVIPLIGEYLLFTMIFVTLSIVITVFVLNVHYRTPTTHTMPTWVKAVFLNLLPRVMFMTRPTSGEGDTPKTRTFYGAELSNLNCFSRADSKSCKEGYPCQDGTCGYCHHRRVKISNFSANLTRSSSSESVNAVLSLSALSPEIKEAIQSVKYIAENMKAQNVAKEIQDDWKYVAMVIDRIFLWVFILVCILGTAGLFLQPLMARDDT
T3 sequence (P12392 21-495): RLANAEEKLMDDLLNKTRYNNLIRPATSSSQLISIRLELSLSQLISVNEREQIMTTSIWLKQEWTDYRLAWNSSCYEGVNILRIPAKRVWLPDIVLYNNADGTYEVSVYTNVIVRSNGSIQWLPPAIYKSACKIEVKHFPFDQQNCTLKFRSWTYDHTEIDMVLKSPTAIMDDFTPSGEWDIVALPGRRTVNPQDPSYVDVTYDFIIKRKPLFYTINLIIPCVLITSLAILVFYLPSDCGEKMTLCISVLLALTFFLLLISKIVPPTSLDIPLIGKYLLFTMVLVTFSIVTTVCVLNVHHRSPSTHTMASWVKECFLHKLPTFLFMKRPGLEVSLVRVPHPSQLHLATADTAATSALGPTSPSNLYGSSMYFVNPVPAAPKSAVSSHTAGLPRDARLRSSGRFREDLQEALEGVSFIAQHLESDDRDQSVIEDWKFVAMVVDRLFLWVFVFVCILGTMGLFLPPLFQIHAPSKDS
T1 sequence (Q00959 20-1464 limits assumed, other chains not shown): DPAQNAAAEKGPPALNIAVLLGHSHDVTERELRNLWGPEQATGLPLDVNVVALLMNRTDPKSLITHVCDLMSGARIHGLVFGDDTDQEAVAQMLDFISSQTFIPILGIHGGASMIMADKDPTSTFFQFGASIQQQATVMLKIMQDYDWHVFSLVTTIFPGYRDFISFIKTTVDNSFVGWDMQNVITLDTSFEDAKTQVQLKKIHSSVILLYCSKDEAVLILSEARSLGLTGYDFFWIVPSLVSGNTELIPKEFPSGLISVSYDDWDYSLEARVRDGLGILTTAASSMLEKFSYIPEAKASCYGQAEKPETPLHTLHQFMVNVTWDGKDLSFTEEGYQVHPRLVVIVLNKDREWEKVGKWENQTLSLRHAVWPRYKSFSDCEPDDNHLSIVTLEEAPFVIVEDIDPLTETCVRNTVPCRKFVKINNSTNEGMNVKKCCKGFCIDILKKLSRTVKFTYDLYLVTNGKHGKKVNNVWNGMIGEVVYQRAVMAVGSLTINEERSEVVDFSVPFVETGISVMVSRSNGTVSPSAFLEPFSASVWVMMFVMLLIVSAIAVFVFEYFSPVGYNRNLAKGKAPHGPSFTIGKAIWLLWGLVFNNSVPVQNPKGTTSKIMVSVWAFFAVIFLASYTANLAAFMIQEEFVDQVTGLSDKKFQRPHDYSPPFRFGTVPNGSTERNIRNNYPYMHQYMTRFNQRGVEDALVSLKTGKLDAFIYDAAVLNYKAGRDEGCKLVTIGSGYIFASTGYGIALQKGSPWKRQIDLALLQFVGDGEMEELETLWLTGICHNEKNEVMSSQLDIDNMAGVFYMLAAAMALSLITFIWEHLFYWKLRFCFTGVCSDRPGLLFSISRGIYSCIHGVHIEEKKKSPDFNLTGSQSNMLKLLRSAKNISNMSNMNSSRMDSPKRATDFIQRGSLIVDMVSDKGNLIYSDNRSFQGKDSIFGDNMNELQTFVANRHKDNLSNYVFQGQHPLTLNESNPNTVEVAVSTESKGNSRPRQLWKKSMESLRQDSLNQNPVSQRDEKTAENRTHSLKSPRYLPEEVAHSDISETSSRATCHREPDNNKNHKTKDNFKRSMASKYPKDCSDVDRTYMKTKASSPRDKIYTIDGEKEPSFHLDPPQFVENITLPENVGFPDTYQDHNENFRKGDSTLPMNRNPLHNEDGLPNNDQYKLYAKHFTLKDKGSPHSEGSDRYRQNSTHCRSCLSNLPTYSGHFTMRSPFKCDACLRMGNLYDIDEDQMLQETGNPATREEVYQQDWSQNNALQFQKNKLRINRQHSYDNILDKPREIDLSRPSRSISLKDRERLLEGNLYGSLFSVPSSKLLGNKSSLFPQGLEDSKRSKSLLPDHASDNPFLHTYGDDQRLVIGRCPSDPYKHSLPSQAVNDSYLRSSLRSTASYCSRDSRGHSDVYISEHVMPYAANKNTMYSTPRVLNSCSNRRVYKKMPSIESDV
T5 sequence (P09483 31-630): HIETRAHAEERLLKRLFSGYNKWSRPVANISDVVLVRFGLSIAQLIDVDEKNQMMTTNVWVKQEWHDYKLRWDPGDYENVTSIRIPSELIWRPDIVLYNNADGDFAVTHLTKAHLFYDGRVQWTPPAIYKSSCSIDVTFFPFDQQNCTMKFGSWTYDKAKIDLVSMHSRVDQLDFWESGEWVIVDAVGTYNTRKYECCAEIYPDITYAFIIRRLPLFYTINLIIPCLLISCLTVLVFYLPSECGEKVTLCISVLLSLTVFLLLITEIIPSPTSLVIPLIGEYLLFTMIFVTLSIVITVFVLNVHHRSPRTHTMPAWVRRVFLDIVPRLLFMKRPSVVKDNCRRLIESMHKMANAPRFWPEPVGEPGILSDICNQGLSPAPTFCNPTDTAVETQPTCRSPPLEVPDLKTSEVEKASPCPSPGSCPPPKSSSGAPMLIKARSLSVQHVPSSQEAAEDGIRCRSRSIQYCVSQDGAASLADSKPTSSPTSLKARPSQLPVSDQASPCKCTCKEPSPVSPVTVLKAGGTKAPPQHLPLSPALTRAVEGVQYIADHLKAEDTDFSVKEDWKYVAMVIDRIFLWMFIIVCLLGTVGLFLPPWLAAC
T5 sequence (P12390 25-500): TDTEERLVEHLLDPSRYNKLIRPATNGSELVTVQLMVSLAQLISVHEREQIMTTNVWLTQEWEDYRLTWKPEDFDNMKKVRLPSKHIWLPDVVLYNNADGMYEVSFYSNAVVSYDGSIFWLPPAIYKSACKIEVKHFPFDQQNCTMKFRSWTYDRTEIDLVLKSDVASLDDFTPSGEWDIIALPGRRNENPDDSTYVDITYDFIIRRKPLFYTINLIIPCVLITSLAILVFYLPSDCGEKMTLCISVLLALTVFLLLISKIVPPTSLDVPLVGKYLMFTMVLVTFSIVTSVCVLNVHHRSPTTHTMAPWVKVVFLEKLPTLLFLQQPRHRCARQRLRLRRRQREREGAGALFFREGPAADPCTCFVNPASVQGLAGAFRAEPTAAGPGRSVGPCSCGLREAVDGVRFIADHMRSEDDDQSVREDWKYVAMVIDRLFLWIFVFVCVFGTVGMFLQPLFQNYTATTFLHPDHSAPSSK

## COCC[C@H]1CC2CN3CCc4c([nH]c5ccccc45)[C@](C(=O)OC)(C2)[C@H]13 [18-methoxycoronaridine]
NR1/2A receptors; 20 μM drug alone
  response to drug applied alone (agonist activity): did not produce any response
NR1/2A receptors; concentrations up to 20 μM, N=3, FIG. 3A
  inhibition of agonist-evoked response: failed to inhibit
5-HT3A receptors; 20 μM drug alone
  response to drug applied alone (agonist activity): did not produce any response
5-HT3A receptors; 20 μM drug with 100 μM serotonin, FIG. 4
  inhibition of serotonin-evoked responses: 50±3%
5-HT3A receptors; approximate, from 20 μM data, read-out: IC50 at 5-HT3 receptors
  IC50: ~20 µM
[1]; Example 5, FIG. 6: mecamylamine 1 mg/kg i.p., 18-methoxycoronaridine 2 mg/kg i.p., dextromethorphan 5 mg/kg s.c., 6-7 rats
  effect on methamphetamine self-administration (percent of baseline): none of the drugs administered alone, significantly decreased
[1]; Example 6, FIG. 9: mecamylamine 1 mg/kg i.p., 18-methoxycoronaridine 5 mg/kg i.p., dextromethorphan 10 mg/kg s.c., bupropion 10 mg/kg i.p., 5-9 rats
  effect on methamphetamine self-administration (percent of baseline): none of the drugs administered alone, significantly decreased
α3β4 nACh receptors; 20 μM drug alone, -70 mV
  response to drug applied alone (agonist activity): did not produce any response
α3β4 nACh receptors; 20 μM drug with 1 mM ACh, N=15, FIG. 1A
  inhibition of ACh-evoked responses on co-application: nearly abolished
NR1/2B receptors; 20 μM drug alone
  response to drug applied alone (agonist activity): did not produce any response
NR1/2B receptors; concentrations up to 20 μM, N=5, FIG. 3B
  inhibition of agonist-evoked response: failed to inhibit
nACh receptors
  IC50: > 20 µM
